How the values were obtained:
[1] = Adsorption investigation after pH stability test (microtube emptied, ACN added, vepdegestrant recovered); type: physicochemical
Method: The half-lives of vepdegestrant at pH values of 2, 4, 6, 7.4, 8, and 10 were 7.35, 0.77, 0.40, 0.50, 0.38, and 0.60 h, respectively. Sun et al. reported that the thalidomide ligand, a cereblon-targeting moiety of PROTAC, was rapidly degraded in phosphate-buffered saline (PBS; pH 7.4). The binder in vepdegestrant contained lenalidomide, a CRBN ligand with a chemical structure similar to that of thalidomide. In addition, Chen et al. reported that the glutarimide ring of lenalidomide is cleaved and degraded through non-enzymatic hydrolysis in aqueous solutions and hepatocytes at physiological pH [24]. However, this instability might be attributed to the adsorption of vepdegestrant onto the surfaces of experimental containers such as microtubes. A high proportion of organic solvent can prevent vepdegestrant from binding to the sample vial surface, and the possibility of adsorption exists because a buffer solution was used in this study. To investigate adsorption, after the pH stability test was completed, the incubation mixture was completely emptied, and ACN was added and thoroughly mixed. LC-MS/MS analysis includes MRM transitions for the expected hydrolysis product i.e., m/z 742.3 → 356.3, to detect the presence of degradation products. […] In contrast, hydrolysis may play a significant role at pH 10. Based on these findings, future studies should consider the selection of container materials and the use of organic solvents to minimize vepdegestrant adsorption.

[2] = Stability of vepdegestrant in rat plasma under storage conditions (method validation); type: in vitro ADME
Method: The results were within ±15% RE under all storage conditions, including at room temperature for 6 h, after three freeze–thaw cycles, at −20 °C for 4 weeks, and in an autosampler for 24 h after sample preparation.
Stability was tested for vepdegestrant in biological samples at LQC and HQC under specific conditions: Short-term stability at room temperature for 6 h, three freeze–thaw cycles, long-term stability at −20 °C for 4 weeks, and pretreated samples in an autosampler for 24 h. The stability test was performed via five replicates analysis, with the acceptance criteria being an RE within ±15% at LQC and HQC levels.

[3] = Plasma protein binding (PPB) using a rapid equilibrium dialysis device; type: in vitro ADME
Method: Low plasma stability was predicted based on pH stability results. […] In addition, we evaluated the plasma protein binding (PPB) of vepdegestrant using a rapid equilibrium dialysis device. However, the concentration of vepdegestrant in the buffer was below the quantification limit, making it impossible to determine an accurate binding ratio. This phenomenon persisted even when the administered concentration was increased from 2 to 10 µg/mL or when the plasma was diluted up to 100-fold. […] Furthermore, the recovery of vepdegestrant in the plasma after a 4-h incubation was greater than 85%. The unrecovered fraction may result from nonspecific binding to the device and membrane. Further studies should be conducted using alternative methods.

[4] = Metabolic stability in mouse liver microsomes; type: in vitro ADME; conditions: 60 min, 1 μM, with NADPH
Method: The metabolic stability of vepdegestrant was evaluated using liver microsomes obtained from mice, rats, dogs, and humans. Vepdegestrant was dissolved in DMSO to prepare a stock solution with a concentration of 0.1 mM. Microsomes (25 µL) were spiked into PBS (440 µL) and pre-incubated for 5 min. After pre-incubation, vepdegestrant stock solution (5 µL) was added, followed by an NADPH regenerating system (27 µL) to initiate the reaction. The composition of the reaction mixture was as follows: Vepdegestrant (final concentration 1 µM), mouse, rat, dog, human liver microsomes (protein concentration: 1 mg/mL), NADPH regenerating system (final concentrations: 1.3 mM NADP^+, 3.3 mM glucose-6-phosphate, 0.4 U/mL glucose-6-phosphate dehydrogenase, and 3.3 mM magnesium chloride), and PBS (pH 7.4). At 5, 15, 30, and 60 min after starting the reaction, aliquots (50 µL) were taken and added to ice-cold ACN with an IS (200 µL) to terminate the reaction. For the zero-time samples, aliquots were taken before adding NADPH. Subsequently, the mixture was vigorously mixed for 10 min and centrifuged at 17,054 g under 25 °C for 10 min. For analysis, 5 µL of the supernatant was injected into the HPLC-MS/MS system. In addition, the stability of vepdegestrant in rat liver microsomes was assessed in the absence of NADPH or NADPH and microsomes (PBS only). […]

recovered vepdegestrant percentage (adsorbed to microtube, recovered with ACN) ([1]; pH 2, after pH stability test): 21.8%
recovered vepdegestrant percentage (adsorbed to microtube, recovered with ACN) ([1]; pH 4, after pH stability test): 108.9%
recovered vepdegestrant percentage (adsorbed to microtube, recovered with ACN) ([1]; pH 6, after pH stability test): 105.1%
recovered vepdegestrant percentage (adsorbed to microtube, recovered with ACN) ([1]; pH 7.4, after pH stability test): 72.6%
recovered vepdegestrant percentage (adsorbed to microtube, recovered with ACN) ([1]; pH 8, after pH stability test): 63.9%
recovered vepdegestrant percentage (adsorbed to microtube, recovered with ACN) ([1]; pH 10, after pH stability test): 27.7%
Stability in Rat Plasma ([2]; 1 month at −20 °C, nominal 3 ng/mL): 98.83 ± 12.58%
Stability in Rat Plasma ([2]; 1 month at −20 °C, nominal 900 ng/mL): 104.3 ± 8.5%
Stability in Rat Plasma ([2]; 6 h at room temperature (25 °C), nominal 3 ng/mL): 100.3 ± 7.1%
Stability in Rat Plasma ([2]; 6 h at room temperature (25 °C), nominal 900 ng/mL): 99.59 ± 4.12%
Stability in Rat Plasma ([2]; Freeze–thaw three-cycle (−20 °C → RT), nominal 3 ng/mL): 98.70 ± 7.09%
Stability in Rat Plasma ([2]; Freeze–thaw three-cycle (−20 °C → RT), nominal 900 ng/mL): 94.98 ± 1.40%
Stability in Rat Plasma ([2]; Processed sample in 10 °C autosampler for 24 h, nominal 3 ng/mL): 99.86 ± 0.84%
Stability in Rat Plasma ([2]; Processed sample in 10 °C autosampler for 24 h, nominal 900 ng/mL): 92.18 ± 6.32%
recovery at 4 h ([3]; plasma in a rapid equilibrium dialysis device, after 4-h incubation in rapid equilibrium dialysis device, read-out: recovery of vepdegestrant in the plasma): > 85%
fraction unbound at 4 h ([3]; plasma, calculated assuming buffer concentration at the lowest quantifiable limit, actual PPB likely higher): 0.001
remaining percentage of unconverted vepdegestrant [4]: 106%
Compound: O=C1CC[C@H](N2Cc3cc(N4CCN(CC5CCN(c6ccc([C@@H]7c8ccc(O)cc8CC[C@@H]7c7ccccc7)cc6)CC5)CC4)ccc3C2=O)C(=O)N1 [vepdegestrant, Vepdegestrant]

— paper PMC11396746, “Stability Evaluation and Pharmacokinetic Profiling of Vepdegestrant in Rodents Using Liquid Chromatography–Tandem Mass Spectrometry” (Molecules, 2024)
